Tests used:
PC-3 [1] = test: Antiproliferative activity against human PC3 cells after 48 hrs by MTS assay; format: functional, cell-based; details: PC-3, 48 h
[2] = Aqueous solubility of the compound in water by HPLC-UV spectrophotometric analysis; format: physicochemical
PC-3 [3] = test: Growth inhibition of human PC3 cells at 10 uM after 48 hrs by MTS assay; format: functional; details: PC-3, 48 h, read-out: GI
BGC-823 = test: Growth inhibition of human BGC823 cells at 10 uM; format: functional; details: read-out: GI
A549 [4] = test: Growth inhibition of human A549 cells at 10 uM after 48 hrs by MTS assay; format: functional; details: A549, 48 h, read-out: GI
SW480 = test: Antiproliferative activity against human SW480 cells after 48 hrs by MTS assay; format: functional, cell-based; details: SW480, 48 h
[5] = Selectivity index, ratio of IC50 for human HELF to IC50 for human PC3 cells; format: toxicity; details: HELF cells and PC3 cells, read-out: Ratio IC50
MCF7 = test: Antiproliferative activity against human MCF7 cells after 48 hrs by MTS assay; format: functional, cell-based; details: MCF7, 48 h
[6] = Antiproliferative activity against human HELF after 48 hrs by MTS assay
A549 [7] = test: Antiproliferative activity against human A549 cells after 48 hrs by MTS assay; format: functional, cell-based; details: A549, 48 h
HCT-116 = test: Antiproliferative activity against human HCT116 cells after 48 hrs by MTS assay; format: functional, cell-based; details: HCT-116, 48 h
A-375 = test: Antiproliferative activity against human A375 cells after 48 hrs by MTS assay; format: functional, cell-based; details: A-375, 48 h

IC50 (PC-3 [1])	Compound	inhibition of growth at 10 µM (PC-3 [3])	other results
0.394 µM	C=CCSC1=CC(=O)C(NCCOCCO)=CC1=O		
0.33 µM	C=CCSC1=CC(=O)C(N[C@H]2CC[C@H](O)CC2)=CC1=O		solubility [2]: < 1 mg/mL
	C=C(Cl)CSC1=CC(=O)C(NCC(C)O)=CC1=O (stereo not drawn)	20%	
2.17 µM	C=CCSC1=CC(=O)C(NCCCNCCO)=CC1=O		
0.461 µM	C=CCSC1=CC(=O)C(NCCCCO)=CC1=O		
2.19 µM	C=CCSC1=CC(=O)C(NCCN2CCNC2=O)=CC1=O		
	COc1ccccc1/C=C/CSC1=CC(=O)C(NCC(C)O)=CC1=O (stereo not drawn)	5.9%	
	C=C(C)CSC1=CC(=O)C(NCC(C)O)=CC1=O (stereo not drawn)	61.9%	
5 µM	C=CCSC1=CC(=O)C(NCC(C)O)=CC1=O (stereo not drawn)	88%	inhibition of growth at 10 µM (BGC-823): 88.5%; inhibition of growth at 10 µM (A549 [4]): 85.5%
0.224 µM	C=CCSC1=CC(=O)C(N[C@H]2CC[C@H](N)CC2)=CC1=O.Cl		IC50 (SW480): 1.22 µM; selectivity ratio [5]: 47; IC50 (MCF7): 0.259 µM; IC50 [6]: 10.5 µM; IC50 (A549 [7]): 0.376 µM; IC50 (HCT-116): 0.408 µM; IC50 (A-375): 0.22 µM; solubility [2]: 23.2 mg/mL
1.46 µM	C=CCSC1=CC(=O)C(NCCCN2CCOCC2)=CC1=O		
	CC(O)CNC1=CC(=O)C(SC/C=C/c2ccc(F)cc2)=CC1=O (stereo not drawn)	12.2%	
2.77 µM	C=CCSC1=CC(=O)C(NCCNC(C)=O)=CC1=O		
0.483 µM	C=CCSC1=CC(=O)C(N[C@H]2CC[C@@H](N)CC2)=CC1=O		
	CC(O)CNC1=CC(=O)C(SC/C=C/c2ccccc2)=CC1=O (stereo not drawn)	3.75%	
1.54 µM	C=CCSC1=CC(=O)C(NCCS(C)(=O)=O)=CC1=O		
0.91 µM	C=CCSC1=CC(=O)C(NCCCN(C)C)=CC1=O.Cl		solubility [2]: > 200 mg/mL
3.98 µM	C=CCSC1=CC(=O)C(NCC(O)CO)=CC1=O (stereo not drawn)		
0.678 µM	C=CCSC1=CC(=O)C(NCCCO)=CC1=O		
0.701 µM	C=CCSC1=CC(=O)C(NCCP(=O)(OCC)OCC)=CC1=O		
0.314 µM	C=CCSC1=CC(=O)C(NCCCNC)=CC1=O.Cl		solubility [2]: > 200 mg/mL
	CC(O)CNC1=CC(=O)C(SC/C=C/c2cccnc2)=CC1=O (stereo not drawn)	9.45%	
	C/C=C/CSC1=CC(=O)C(NCC(C)O)=CC1=O (stereo not drawn)	67.6%	
1.57 µM	C=CCSC1=CC(=O)C(NCCCN)=CC1=O		
0.72 µM	C=CCSC1=CC(=O)C(NCCO)=CC1=O		
4.67 µM	C=CCSC1=CC(=O)C(NCCC(=O)OC)=CC1=O		
	CC(O)CNC1=CC(=O)C(SC2C=CCCC2)=CC1=O (stereo not drawn)	46.9%	
	C=C(CSC1=CC(=O)C(NCC(C)O)=CC1=O)c1ccccc1 (stereo not drawn)	11.8%	

Compound	IC50 (PC-3 [1])	inhibition of growth at 10 µM (PC-3 [3])	other results
C=CCSC1=CC(=O)C(NCCCl)=CC1=O	0.602 µM		

— ChEMBL document CHEMBL4196043, “Discovery and optimization of 2-thio-5-amino substituted benzoquinones as potent anticancer agents” (Eur J Med Chem, 2018)
